Results as given in ChEMBL document CHEMBL1201862, “PubChem BioAssay data set” (2004).
Activity calls are given as the source filed them.

Legend:
[1] = CRF-BP/CRF-R2 complex antagonists, dose response, cell-based, uHTS hits, 384-well (AID 651639); type: functional, Homo sapiens; conditions: read-out: IC50_Mean
SUMO-activating enzyme = SUMO-activating enzyme (Homo sapiens, UniProt Q9UBT2); test: SUMOylation inhibitor hit validation, confirmation, SUMOylation inhibitor project, biochemical, AlphaScreen (AID 2018); type: functional
SUMO-activating enzyme, sequence (Q9UBE0 whole entry): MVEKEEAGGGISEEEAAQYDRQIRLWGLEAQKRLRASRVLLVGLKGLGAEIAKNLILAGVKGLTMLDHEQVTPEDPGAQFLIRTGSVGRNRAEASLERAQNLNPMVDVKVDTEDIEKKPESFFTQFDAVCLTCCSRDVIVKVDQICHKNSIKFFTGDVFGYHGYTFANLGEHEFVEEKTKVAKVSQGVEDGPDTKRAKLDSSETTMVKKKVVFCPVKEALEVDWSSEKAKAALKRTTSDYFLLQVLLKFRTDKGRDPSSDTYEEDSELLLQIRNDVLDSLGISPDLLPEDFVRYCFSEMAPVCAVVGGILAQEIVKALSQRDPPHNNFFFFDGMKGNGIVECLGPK
SUMO-activating enzyme, sequence (Q9UBT2 whole entry): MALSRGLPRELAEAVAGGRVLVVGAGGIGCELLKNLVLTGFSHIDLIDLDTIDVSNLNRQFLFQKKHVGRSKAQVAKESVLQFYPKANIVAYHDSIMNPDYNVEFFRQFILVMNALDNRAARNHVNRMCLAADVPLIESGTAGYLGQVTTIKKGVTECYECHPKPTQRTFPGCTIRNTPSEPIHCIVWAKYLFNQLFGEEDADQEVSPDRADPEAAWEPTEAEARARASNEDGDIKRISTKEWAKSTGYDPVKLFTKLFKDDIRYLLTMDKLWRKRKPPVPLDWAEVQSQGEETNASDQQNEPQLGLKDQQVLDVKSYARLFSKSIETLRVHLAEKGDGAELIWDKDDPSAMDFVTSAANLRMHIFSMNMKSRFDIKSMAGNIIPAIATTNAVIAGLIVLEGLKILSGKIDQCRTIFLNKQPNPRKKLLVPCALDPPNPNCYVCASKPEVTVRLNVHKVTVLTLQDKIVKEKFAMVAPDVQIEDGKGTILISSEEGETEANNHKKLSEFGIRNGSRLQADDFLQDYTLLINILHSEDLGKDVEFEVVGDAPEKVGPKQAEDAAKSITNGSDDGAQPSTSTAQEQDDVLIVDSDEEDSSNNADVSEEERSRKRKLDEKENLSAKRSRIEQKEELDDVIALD

[2] = molecular target: T1, Corticotropin-releasing factor receptor 2/Corticotropin-releasing factor-binding protein (Homo sapiens, UniProt P24387+Q13324); test: Dose Response confirmation of uHTS hits for small molecule antagonists of the CRF-binding protein and CRF-R2 receptor complex.; type: functional; conditions: read-out: IC50_Mean
T1 sequence (Q13324 whole entry): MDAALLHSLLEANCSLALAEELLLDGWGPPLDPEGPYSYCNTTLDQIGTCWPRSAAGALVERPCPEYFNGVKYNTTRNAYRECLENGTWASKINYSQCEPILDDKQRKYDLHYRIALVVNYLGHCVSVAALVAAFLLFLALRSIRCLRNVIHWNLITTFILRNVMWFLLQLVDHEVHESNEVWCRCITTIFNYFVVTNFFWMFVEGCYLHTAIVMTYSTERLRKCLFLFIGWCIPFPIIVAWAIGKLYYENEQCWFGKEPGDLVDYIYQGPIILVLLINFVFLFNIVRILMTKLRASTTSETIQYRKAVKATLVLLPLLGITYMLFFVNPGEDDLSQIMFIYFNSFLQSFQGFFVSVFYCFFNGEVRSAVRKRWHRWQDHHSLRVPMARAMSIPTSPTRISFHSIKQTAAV
T1 sequence (P24387 whole entry): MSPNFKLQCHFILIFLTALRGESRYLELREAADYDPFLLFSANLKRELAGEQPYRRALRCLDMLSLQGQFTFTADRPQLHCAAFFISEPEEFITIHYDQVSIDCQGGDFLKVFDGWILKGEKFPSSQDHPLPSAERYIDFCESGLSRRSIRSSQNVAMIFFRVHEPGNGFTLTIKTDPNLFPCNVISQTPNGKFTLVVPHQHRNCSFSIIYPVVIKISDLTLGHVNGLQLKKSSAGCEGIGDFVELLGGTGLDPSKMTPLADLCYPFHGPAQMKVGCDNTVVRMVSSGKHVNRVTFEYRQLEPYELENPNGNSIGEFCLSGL

[3] = molecular target: T1, Corticotropin-releasing factor receptor 2/Corticotropin-releasing factor-binding protein; test: activators of CRF receptor 2 with binding protein – uHTS hits, confirmation (AID 602473); type: functional; conditions: read-out: EC50_Mean
cells [4] = type: functional, cell-based
[5] = molecular target: T2, Small ubiquitin-related modifier 1 (Homo sapiens, UniProt P63165); test: inhibitors of SUMO1 partner interactions, dose response, biochemical, FRET (AID 624383); type: functional; conditions: read-out: IC50_Mean
T2 sequence (P63165 whole entry): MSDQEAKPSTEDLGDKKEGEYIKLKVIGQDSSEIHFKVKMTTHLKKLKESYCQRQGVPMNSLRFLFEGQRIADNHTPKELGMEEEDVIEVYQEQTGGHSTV

Streptococcus = test: Group A Streptococcus viability loss, dose response, counter-screen for streptokinase expression inhibitor project, luminescence, BacTiterGlo (AID 1915); type: functional, organism-based;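 note: potency for reduction of bacterial viability or growth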
cells [6] = type: functional, cell-based; remark: listed apart in the source
[7] = molecular target: T2, Small ubiquitin-related modifier 1; test: inhibitors of SUMO1 peptide binding, dose response, biochemical, fluorescence polarization, uHTS hits (AID 624382); type: functional; conditions: read-out: IC50_Mean
Streptokinase A = molecular target: T3, Streptokinase A (Streptococcus pyogenes serotype M1, UniProt P10520); test: S. pyogenes streptokinase expression inhibitors, potency, dose response, plasminogen activation absorbance, OD405 (AID 1914); type: functional, Streptococcus pyogenes M1 GAS;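 note: secreted streptokinase activity via plasminogen activation per viability signal from cell pellet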
T3 sequence (P10520 whole entry): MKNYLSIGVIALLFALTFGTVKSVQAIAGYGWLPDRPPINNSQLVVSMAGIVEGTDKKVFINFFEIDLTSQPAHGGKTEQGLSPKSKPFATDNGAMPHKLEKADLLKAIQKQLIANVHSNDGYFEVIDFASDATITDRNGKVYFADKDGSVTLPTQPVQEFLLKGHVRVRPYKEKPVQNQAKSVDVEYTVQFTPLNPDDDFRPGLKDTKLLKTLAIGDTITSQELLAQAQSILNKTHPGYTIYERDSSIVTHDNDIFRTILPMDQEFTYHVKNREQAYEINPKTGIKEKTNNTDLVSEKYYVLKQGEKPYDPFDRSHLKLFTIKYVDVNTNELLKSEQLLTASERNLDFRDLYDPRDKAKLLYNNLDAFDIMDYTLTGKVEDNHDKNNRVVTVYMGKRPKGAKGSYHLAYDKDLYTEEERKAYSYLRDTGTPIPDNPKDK

INS1 = test: beta cell apoptosis inhibitors, cytokine rescue, dose response, luminescence, retest (AID 449756); type: functional, cell-based; conditions: Rattus norvegicus;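 note: cell death triggered by IL-1 beta plus TNF-alpha plus IFN-gamma mixture; protective hits raise ATP signal compared with cytokine alone wells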
Protein Wnt-3a = Protein Wnt-3a (Mus musculus, UniProt P27467); test: Wnt3a-driven reporter signaling inhibition, dose response, selectivity assay for Gli-SUFU antagonist project, Wnt-LIGHT cells, luminescence (AID 651570); type: functional; conditions: read-out: IC50_Mean;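 note: Wnt-LIGHT reporter cells stimulated with conditioned medium from Wnt3a-producing cells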
Protein Wnt-3a, sequence (P27467 whole entry): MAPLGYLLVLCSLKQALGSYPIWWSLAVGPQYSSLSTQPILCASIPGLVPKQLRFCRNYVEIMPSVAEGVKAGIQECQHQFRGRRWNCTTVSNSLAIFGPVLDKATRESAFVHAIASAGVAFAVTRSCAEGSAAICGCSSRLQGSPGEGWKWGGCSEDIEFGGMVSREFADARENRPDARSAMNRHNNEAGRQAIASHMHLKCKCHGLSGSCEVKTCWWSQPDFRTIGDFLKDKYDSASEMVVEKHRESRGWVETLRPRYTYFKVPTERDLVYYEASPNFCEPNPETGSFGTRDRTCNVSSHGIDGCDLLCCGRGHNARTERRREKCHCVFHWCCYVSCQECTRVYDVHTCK

[8] = AlphaScreen signal interference compounds, dose response, artefact control for ARNT-TACC3 interaction inhibitor project, biochemical, luminescence, cherry-pick (AID 651705); type: functional;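 note: AlphaScreen bead proximity signal that flags compounds interfering with the detection technology; potency reflects signal decrease which marks the compound as an assay artifact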
[9] = molecular target: T4, Replicative DNA helicase DnaB (Mycobacterium tuberculosis, UniProt P9WMR3); test: DnaB intein splicing inhibitors, dose response, biochemical, cell-free fluorescence (AID 449749); type: functional
T4 sequence (P9WMR3 whole entry): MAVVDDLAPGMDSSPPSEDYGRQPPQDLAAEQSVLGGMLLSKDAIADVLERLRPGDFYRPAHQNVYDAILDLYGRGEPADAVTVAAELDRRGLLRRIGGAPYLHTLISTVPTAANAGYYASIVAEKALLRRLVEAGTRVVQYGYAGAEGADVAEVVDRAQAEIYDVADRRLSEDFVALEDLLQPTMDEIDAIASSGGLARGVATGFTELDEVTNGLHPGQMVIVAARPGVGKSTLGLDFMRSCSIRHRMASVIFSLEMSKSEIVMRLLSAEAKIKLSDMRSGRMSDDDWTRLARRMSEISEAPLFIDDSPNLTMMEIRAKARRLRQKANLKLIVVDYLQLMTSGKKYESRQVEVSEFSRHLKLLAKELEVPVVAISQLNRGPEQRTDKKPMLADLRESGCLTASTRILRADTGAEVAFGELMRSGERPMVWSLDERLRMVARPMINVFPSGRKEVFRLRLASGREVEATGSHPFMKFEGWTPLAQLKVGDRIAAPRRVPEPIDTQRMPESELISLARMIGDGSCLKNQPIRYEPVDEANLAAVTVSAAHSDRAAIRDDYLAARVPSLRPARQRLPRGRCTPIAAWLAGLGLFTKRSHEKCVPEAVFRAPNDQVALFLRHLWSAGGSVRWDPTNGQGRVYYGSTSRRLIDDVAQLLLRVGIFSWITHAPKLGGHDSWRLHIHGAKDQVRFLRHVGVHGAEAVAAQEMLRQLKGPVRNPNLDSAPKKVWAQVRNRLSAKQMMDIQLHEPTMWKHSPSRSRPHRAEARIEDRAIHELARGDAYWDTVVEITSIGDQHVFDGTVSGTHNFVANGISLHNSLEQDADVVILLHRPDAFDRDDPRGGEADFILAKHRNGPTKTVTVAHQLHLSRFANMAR

[10] = molecular target: Glucose-6-phosphate 1-dehydrogenase (Homo sapiens, UniProt P11413); test: human G6PD enzyme inhibitors, dose response, selectivity assay for P. falciparum G6PD inhibitor project, biochemical, fluorescence (AID 504792); type: functional
Glucose-6-phosphate 1-dehydrogenase, sequence (P11413 whole entry): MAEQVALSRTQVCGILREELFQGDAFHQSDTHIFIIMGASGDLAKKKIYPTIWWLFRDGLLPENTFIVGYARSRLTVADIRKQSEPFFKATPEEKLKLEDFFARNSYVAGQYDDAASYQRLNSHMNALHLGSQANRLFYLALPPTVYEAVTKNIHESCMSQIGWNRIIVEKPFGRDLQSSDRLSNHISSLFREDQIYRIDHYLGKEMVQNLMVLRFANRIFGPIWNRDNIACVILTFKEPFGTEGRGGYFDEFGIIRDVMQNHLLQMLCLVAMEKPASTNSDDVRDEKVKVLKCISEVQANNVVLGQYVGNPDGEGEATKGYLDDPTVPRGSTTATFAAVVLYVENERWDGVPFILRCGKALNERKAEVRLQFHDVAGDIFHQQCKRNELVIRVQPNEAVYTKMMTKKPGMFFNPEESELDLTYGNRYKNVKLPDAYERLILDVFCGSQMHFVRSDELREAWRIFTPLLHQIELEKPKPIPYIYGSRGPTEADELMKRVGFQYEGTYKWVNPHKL

[11] = molecular target: T5, Rac GTPase-activating protein 1 (Homo sapiens, UniProt Q9H0H5); test: MgcRacGAP GTPase-activating activity inhibitors, confirmation, biochemical, ADP Hunter fluorescence, primary and confirmatory (AID 624330); type: functional
T5 sequence (Q9H0H5 whole entry): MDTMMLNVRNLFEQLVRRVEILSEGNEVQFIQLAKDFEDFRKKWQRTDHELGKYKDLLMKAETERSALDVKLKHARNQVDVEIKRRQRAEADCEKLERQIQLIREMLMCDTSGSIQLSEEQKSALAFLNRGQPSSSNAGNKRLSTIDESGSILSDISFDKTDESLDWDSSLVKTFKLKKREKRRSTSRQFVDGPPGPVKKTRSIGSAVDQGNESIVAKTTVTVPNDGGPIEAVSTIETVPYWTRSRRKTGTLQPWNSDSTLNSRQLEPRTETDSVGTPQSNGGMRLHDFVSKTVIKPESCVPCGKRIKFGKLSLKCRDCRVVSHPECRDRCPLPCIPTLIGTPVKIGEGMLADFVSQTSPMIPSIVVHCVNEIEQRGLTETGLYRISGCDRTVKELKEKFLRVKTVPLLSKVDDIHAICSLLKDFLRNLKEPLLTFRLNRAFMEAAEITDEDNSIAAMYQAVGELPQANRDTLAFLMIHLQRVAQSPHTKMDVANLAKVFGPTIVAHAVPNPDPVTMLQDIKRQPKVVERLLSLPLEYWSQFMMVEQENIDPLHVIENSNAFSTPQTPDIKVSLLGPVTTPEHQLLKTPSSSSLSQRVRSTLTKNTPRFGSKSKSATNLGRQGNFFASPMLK

Protein RecA = molecular target: T6, Protein RecA (Mycobacterium tuberculosis, UniProt P9WHJ3); test: Fluorescence Cell-Free Homogeneous Dose Retest to Identify Inhibitors of RecA-Intein Splicing Activity. [Related pubchem assays (depositor defined):AID2097, AID2223, AID489010, AID492950]; type: functional
T6 sequence (P9WHJ3 whole entry): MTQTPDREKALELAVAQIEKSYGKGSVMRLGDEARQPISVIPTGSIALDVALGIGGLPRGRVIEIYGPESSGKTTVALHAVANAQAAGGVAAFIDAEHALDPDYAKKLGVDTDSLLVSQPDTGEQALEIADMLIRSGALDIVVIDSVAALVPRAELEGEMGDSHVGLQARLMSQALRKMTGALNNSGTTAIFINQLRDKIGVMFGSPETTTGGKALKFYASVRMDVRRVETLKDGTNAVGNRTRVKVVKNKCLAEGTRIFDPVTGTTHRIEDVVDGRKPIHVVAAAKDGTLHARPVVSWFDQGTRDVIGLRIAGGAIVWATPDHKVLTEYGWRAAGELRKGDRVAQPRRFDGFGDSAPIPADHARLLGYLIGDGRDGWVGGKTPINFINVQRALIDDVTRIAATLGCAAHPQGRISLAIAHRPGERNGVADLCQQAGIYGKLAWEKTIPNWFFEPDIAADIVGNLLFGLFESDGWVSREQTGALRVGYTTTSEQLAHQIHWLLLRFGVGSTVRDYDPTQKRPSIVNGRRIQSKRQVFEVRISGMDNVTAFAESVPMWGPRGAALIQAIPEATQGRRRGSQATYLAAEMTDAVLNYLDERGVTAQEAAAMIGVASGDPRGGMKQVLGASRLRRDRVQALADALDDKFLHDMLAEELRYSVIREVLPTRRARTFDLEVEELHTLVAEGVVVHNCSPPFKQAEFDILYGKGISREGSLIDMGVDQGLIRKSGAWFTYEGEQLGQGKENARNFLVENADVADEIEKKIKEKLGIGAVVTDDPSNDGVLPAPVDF

[12] = molecular target: Induced myeloid leukemia cell differentiation protein Mcl-1 (Homo sapiens, UniProt Q07820); type: functional
Induced myeloid leukemia cell differentiation protein Mcl-1, sequence (Q07820 whole entry): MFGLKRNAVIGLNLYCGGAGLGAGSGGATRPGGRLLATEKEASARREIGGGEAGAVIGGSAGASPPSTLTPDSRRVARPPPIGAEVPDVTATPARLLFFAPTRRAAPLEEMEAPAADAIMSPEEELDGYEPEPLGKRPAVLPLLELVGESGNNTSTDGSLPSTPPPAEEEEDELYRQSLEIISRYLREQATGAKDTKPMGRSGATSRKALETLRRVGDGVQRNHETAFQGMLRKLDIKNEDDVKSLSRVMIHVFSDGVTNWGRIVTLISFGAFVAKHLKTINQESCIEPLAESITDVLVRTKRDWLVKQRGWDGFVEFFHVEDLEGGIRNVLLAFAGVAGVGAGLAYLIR

[13] = HEp-2 cell cytotoxicity, dose response, cytotoxicity control for RSV inhibitor project, HTS (AID 2410); type: functional; conditions: human respiratory syncytial virus
Cytochrome P450 2C9 = Cytochrome P450 2C9 (Homo sapiens, UniProt P11712)
Cytochrome P450 2C9, sequence (P11712 whole entry): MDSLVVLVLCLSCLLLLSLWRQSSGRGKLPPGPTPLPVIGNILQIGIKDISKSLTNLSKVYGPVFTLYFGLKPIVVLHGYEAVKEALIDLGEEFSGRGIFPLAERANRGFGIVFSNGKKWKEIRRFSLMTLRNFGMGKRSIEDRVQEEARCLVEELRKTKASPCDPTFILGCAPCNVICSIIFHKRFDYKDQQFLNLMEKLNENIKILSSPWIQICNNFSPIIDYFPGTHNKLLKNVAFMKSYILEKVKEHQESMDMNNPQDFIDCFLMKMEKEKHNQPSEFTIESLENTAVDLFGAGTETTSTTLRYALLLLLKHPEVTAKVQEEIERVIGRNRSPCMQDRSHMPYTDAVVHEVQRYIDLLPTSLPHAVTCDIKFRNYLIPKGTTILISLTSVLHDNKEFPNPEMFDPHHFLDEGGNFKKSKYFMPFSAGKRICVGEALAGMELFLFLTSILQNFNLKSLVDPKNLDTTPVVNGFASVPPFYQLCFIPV

P388/ADR = test: cells; type: functional; conditions: Mus musculus
SN12K1 = test: cells; type: functional; conditions: Homo sapiens
P388 = test: cells; type: functional; conditions: Mus musculus

## COC(=O)c1nc2n(n1)C(c1ccc([N+](=O)[O-])cc1)C(C(=O)Nc1ccc(Cl)cc1)=C(C)N2 (stereo not drawn)
[1]
  IC50: > 20 µM (inactive)
SUMO-activating enzyme
  IC50: 32.4 µM (active)
[2]
  IC50: 17.8 µM (active)
[3]
  EC50: > 53 µM (inactive)

## N#C/C(=C\c1ccc(/C=C(/C#N)c2nn(CCO)c(N)c2C#N)cc1)c1nn(CCO)c(N)c1C#N
Cells [4]
  EC50: > 350 µM (not active)
[5]
  IC50: 2.85 µM (active)
Streptococcus
  EC50: > 150 µM (not active)
Cells [6]
  EC50: > 350 µM (not active)
[7]
  IC50: > 66.6 µM (inactive)
Streptokinase A
  EC50: > 150 µM (not active)

## COc1ccc(NC(S)=NCc2cccnc2)cc1
Cells [4]
  EC50: > 350 µM (not active)
[1]
  IC50: 17.8 µM (active)
Cells [6]
  EC50: > 350 µM (not active)

## CC1CCCCC1NS(=O)(=O)c1ccc(S(=O)(=O)NCc2ccncc2)cc1 (stereo not drawn)
INS1
  AC50: 3.4 µM (active)
Protein Wnt-3a
  IC50: 1.43 µM (active)

## CCOc1ncccc1C(=O)OCC(=O)Nc1nnc(-c2ccccc2)o1
[8]
  AC50: 107 µM (active)

## CCOC(=O)c1c(OCC)[nH]c2c1cc(O)c1ccccc12
[9]
  AC50: > 380 µM (inconclusive)
[10]
  IC50: > 80 µM (inactive)
[11]
  IC50: 63.5 µM (active)
Protein RecA
  EC50: 2.64 µM (active)
[12]
  IC50: 935 nM (active)
[8]
  AC50: 93 µM (active)

## S=C(Nc1ccccc1)N1CCC(Cc2ccccc2)CC1
Protein Wnt-3a
  IC50: 18 µM (active)

## COc1ccccc1CCNC(=O)C(=O)NCCC1CCCCN1S(=O)(=O)c1cccs1 (stereo not drawn)
[13]
  CC50: 36.7 µM (active)
Protein Wnt-3a
  IC50: 12.3 µM (active)

## Cc1nc(-c2c(C(F)(F)F)noc2-c2ccc(O)cc2O)cs1
Cytochrome P450 2C9
  AC50: 3.16 µM (inconclusive)
[1]
  IC50: > 20 µM (inactive)
[2]
  IC50: 22.7 µM (active)
[3]
  EC50: > 53 µM (inactive)

## COc1ccc(CCNC(=O)c2cc3c(=O)n4cccc(C)c4nc3s2)cc1OC
[5]
  IC50: 100 µM (inactive)
[7]
  IC50: > 66.6 µM (inactive)

## O=C(NC(Cc1ccc(Cl)cc1)C(=O)O)c1ccc(I)cc1 (stereo not drawn)
P388/ADR
  GI50: 54.8 µM (inactive)
SN12K1
  GI50: > 100 µM (inactive)
P388
  GI50: 64.7 µM (inactive)

## COc1cc(OC)cc(C(=O)Nc2nnc(-c3cccnc3)o2)c1
[8]
  AC50: 97.6 µM (active)

## COc1cc(C2c3cc4c(cc3[C@@H](Nc3cccc(CO)c3)C3COC(=O)[C@H]23)OCO4)cc(OC)c1O (stereo partly drawn)
P388/ADR
  GI50: 0.124 µM (active)
SN12K1
  GI50: 0.0925 µM (active)
P388
  GI50: < 0.01 µM (active)
